From patent publication EP0675900B1, “ANTIBIOTICS GE 37468 A, B AND C” (Biosearch Italia S.p.A., priority 1992, dated 1994)

What was measured:
[1] = tested on: gram positive bacteria and gram positive as well as gram negative anaerobes; assay: Minimal inhibitory concentrations (MIC) by broth microdilution, in vitro antimicrobial activity; type: cell-based; conditions: summary in words of the in vitro spectrum; the MIC values of Table IV are printed only as an image
[2] = tested on: Staphylococcus aureus Smith; assay: Experimental septicemia in mice; type: in vivo, CD1 mice; conditions: iv, 168 h, mice infected intraperitoneally with 10^6 CFU/mouse S. aureus Smith, compound given intravenously once immediately after infection, Spearman and Kaerber method from survival at day 7
Protocol: The antimicrobial activity of antibiotic GE37468A was also confirmed in experimental septicemia in mice.
Groups of five CD1 mice of both sexes (Charles River, average weight 18-22 g) were infected intraperitoneally with 10^6 CFU/mouse of Staphylococcus aureus Smith suspended in 0.5 ml of 5% bacteriological mucin (Difco). The test compound was administered intravenously once, immediately after infection, in a sterile solution containing 10% dimethylsulfoxide, 10% Cremophor EL®, 20% 0.07 M phosphate buffer (pH 8), 60% glucose solution (5%).

[3] = Hydrolytic degradation in acidic aqueous buffer; type: physicochemical; conditions: kept for 6 to 18 hours in an aqueous buffer solution having a pH value between 3 and 4
Source text: Antibiotics GE37468B and GE37468C seem to derive from antibiotic GE37468A via hydrolytic degradation. […] The physico-chemical characteristics of these two products are as follows: […]

## C=C(NC(=O)C(=C)NC(=O)c1csc(-c2ccc3c(n2)-c2csc(n2)-c2csc(n2)C2C(C)CC(O)N2C(=O)C(Cc2ccc(O)cc2)NC(=O)C2CSC(=N2)C(Cc2ccccc2)NC(=O)c2csc(n2)C(CC(N)=O)NC(=O)c2nc-3oc2C)n1)C(=O)O (centres unmarked) [GE37468A]
[1]
  antimicrobial activity: mainly active against gram positive bacteria and gram positive as well as gram negative anaerobes
[2]
  ED50: 3.2 mg/kg
[3]
  stability in aqueous buffer solution (hydrolytic degradation): yields substantial amounts of both antibiotic GE37468B and GE37468C

## C=C(NC(=O)c1csc(-c2ccc3c(n2)-c2csc(n2)-c2csc(n2)C2C(C)CC(O)N2C(=O)C(Cc2ccc(O)cc2)NC(=O)C2CSC(=N2)C(Cc2ccccc2)NC(=O)c2csc(n2)C(CC(N)=O)NC(=O)c2nc-3oc2C)n1)C(N)=O (centres unmarked) [GE37468C]
[1]
  antimicrobial activity: mainly active against gram positive bacteria and gram positive as well as gram negative anaerobes

## Cc1oc2nc1C(=O)NC(CC(N)=O)c1nc(cs1)C(=O)NC(Cc1ccccc1)C1=NC(CS1)C(=O)NC(Cc1ccc(O)cc1)C(=O)N1C(O)CC(C)C1c1nc(cs1)-c1nc(cs1)-c1nc(-c3nc(C(N)=O)cs3)ccc1-2 (centres unmarked) [GE37468B]
[1]
  antimicrobial activity: mainly active against gram positive bacteria and gram positive as well as gram negative anaerobes
